According to patent US20020028938A1, “Prostaglandin endoperoxide H synthase biosynthesis inhibitors” (priority 1997, published 2002):

Assays:
[1] = target: T1, recombinant human Cox-1 (r-hu Cox1) (Homo sapiens, UniProt P23219); assay: Recombinant human PGHS-1 enzyme assay (RHUCX1); assay type: biochemical
T1 construct: made in house; host or cells: baculovirus/Sf9 insect cells (microsomes)
Outline: (§1)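 PGE2 formed with and without drug quantified by EIA against matrix-matched standards; percent inhibition relative to control mean, IC50 by linear regression.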

[2] = target: T2, recombinant human Cox-2 (r-hu Cox-2) (Homo sapiens, UniProt P35354); assay: Recombinant human PGHS-2 enzyme assay (RHUCX2); assay type: biochemical; conditions: for IC50: read-out: RHUCX2 IC50 (parenthetical value)
T2 construct: made in house; host or cells: baculovirus/Sf9 insect cells (microsomes)
T2 sequence (P35354 18-604): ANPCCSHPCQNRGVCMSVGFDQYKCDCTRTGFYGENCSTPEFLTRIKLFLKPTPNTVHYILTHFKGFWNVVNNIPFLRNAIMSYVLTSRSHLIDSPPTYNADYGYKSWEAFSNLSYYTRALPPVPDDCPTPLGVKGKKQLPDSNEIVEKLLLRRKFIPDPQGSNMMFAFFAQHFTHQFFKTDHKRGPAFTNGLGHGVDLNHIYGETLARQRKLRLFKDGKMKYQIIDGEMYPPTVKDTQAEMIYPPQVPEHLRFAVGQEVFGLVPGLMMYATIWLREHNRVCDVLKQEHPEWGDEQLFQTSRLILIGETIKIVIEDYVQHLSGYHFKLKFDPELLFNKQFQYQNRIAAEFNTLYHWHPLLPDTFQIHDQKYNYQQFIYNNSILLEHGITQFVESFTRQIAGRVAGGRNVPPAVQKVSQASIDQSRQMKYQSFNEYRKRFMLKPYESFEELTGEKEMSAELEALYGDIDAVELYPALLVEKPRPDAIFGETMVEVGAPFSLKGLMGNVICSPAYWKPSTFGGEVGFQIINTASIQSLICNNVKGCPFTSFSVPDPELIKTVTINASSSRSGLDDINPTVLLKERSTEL
Outline: as §1

[3] = target: T3, Human Whole Platelet Cyclooxygenase-1 (Homo sapiens, UniProt P23219); assay: Human Whole Platelet Cyclooxygenase-1 assay (HWPX); assay type: cell-based; conditions: for IC50: read-out: HWPX IC50 (parenthetical value)
T3 construct: from tissue; host or cells: human blood: isolated platelets (A4) or heparinised whole blood (A9)
Experimental: Blood from normal healthy volunteers is collected into tubes containing ACD (acid citrate dextrose) as the anticoagulant. This blood is centrifuged at 175×g to prepare platelet rich plasma. The platelet rich plasma is then centrifuged at 100×g to pellet the white blood cells, leaving the platelets in the supernatant. The supernatant is layered on a cushion of 0.7 mL of 10% bovine serum albumin in Tyrodes solution (Gibco; Grand Island, N.Y.) and then centrifuged at 1000×g. The resulting supernatant from this centrifuigation is then removed and 11 mL of Tyrodes solution is added to the remaining pellet of platelets. The platelets are then aliquoted at 120 μl into a 96 well plate. Experimental compounds are added and allowed to pre-incubate for 10 minutes. At the end of this pre-incubation period, the calcium ionophore A23187 is added to a final concentration of 8.8 μM and the incubation is continued for ten minutes. The reaction is stopped by adding cold 6 mM EDTA, the incubation mixture is centrifuged at 220×g, and the supernatants are then analyzed for thromboxane using a commercial kit from Cayman Chemical (Ann Arbor, Mich.

[4] = target: T4, human amnionic whole cell cyclooxygenase-2 (WISH cells) (Homo sapiens, UniProt P35354); assay: IL-1β induced PGE2 production in WISH cells; assay type: cell-based; conditions: for IC50: read-out: Wish IC50 (parenthetical value)
T4 construct: endogenous in cells; host or cells: human amnionic WISH cells, induced with IL-1beta
T4 sequence (P35354 18-604): T2 sequence (P35354 18-604)
Outline: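 Confluent (80%) WISH cells were stimulated with 5 ng/ml IL-1β in serum-free Neuman-Tytell medium, with or without test compound in DMSO (0.01% v/v). PGE2 in the culture medium was measured by EIA against standards prepared in the same medium, read by optical density.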

[5] = test system: air pouch prostaglandin biosynthesis (Cox-2); assay: Carrageenan induced air pouch prostaglandin biosynthesis model (CAP); assay type: in vivo, rat; conditions: 3 mpk, rat; for inhibition in vivo at 3 mg/kg: 4 h, read-out: CAP % Inhib. @ 3 mpk
Experimental: To compare the mean responses of the treatment groups, analysis of variance was applied. Percent inhibition values were determined by comparing the individual treatment mean values to the mean of the control group. Linear regression was used to estimate IC50's/ED50's in appropriate assays.
Carrageenan induced air pouch prostaglandin biosynthesis model (CAP) Air pouches are formed in the backs of male Sprague Dawley rats by injecting 20 mL of sterile air on day 0. Three days later the pouch was reinflated with an additional 10 mL of sterile air. On day 7, 1 mL of saline containing 0.2 % lambda carrageenan (Sigma Chemical Co.) is injected into the pouch to induce the inflammatory reaction that is characterized by the release of prostaglandins. Test compounds are dosed at 0.1 to 10 mg/kg 30 minutes prior to carrageenan. Four hours after the carrageenan injection the pouch is lavaged and levels of prostaglandins are determined by enzyme immuno-assay using commercially available kits. […] Values for Cox-2 inhibition that are parenthetical indicate ED50 values.

[6] = read-out: RHUCX1 % Inh. at Dose
[7] = read-out: RHUCX2 % Inh. at Dose
[8] = read-out: Wish % Inhib. at Dose

T1 sequence (P23219 24-599): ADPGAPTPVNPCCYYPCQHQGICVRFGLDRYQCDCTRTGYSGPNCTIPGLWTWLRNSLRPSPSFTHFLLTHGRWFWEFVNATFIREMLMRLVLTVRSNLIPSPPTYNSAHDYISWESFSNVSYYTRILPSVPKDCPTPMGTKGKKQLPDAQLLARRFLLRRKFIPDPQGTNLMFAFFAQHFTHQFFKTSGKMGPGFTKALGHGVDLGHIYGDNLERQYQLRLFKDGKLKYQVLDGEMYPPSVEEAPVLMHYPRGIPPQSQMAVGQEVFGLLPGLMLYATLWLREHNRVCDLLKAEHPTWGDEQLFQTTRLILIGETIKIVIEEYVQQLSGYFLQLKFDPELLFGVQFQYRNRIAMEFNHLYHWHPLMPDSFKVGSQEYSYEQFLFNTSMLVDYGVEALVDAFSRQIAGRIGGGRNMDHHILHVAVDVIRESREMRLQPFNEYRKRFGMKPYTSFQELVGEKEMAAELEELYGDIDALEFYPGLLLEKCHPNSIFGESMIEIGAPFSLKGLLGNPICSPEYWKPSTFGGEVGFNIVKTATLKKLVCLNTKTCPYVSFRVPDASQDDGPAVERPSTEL
T3 sequence (P23219 24-599): as above

SMILES | inhibition at 100 µM [1, 6] | IC50 [3] | IC50 [4] | melting point | inhibition at 0.1 µM [2, 7] | other results
CS(=O)(=O)c1ccc(-c2cnn(-c3cccc(Cl)c3)c(=O)c2-c2ccc(F)cc2)cc1 [Example 165] | 0% | 1900 nM | 30 nM | 232 to 235 °C | – | IC50 [2]: 1080 nM
CC(C)COc1c(-c2ccc(S(C)(=O)=O)c(F)c2)cnn(-c2ccc(F)c(Cl)c2)c1=O [Example 205, 2-(3-Chloro-4-fluorophenyl)-4-(2-methylpropoxy)-5-[3-fluoro-4-(methylsulfonyl)phenyl]-3(2H)-pyridazinone] | – | – | – | 142 to 144 °C | – | inhibition in vivo at 3 mg/kg [5]: 54%
CS(=O)(=O)c1ccc(-c2cnn(-c3ccc(F)cc3)c(=O)c2C2CCCCC2)cc1 [Example 228, 2-(4-Fluorophenyl)-4-cyclohexyl-5-[4-(methylsulfonyl)phenyl]-3(2H)-pyridazinone] | 7% | 19600 nM | 86 nM | 231 to 233 °C | – | IC50 [2]: 209 nM
Cc1cc(-c2c(-c3ccc(S(C)(=O)=O)cc3)cnn(-c3ccc(F)c(Cl)c3)c2=O)ccc1F [Example 247, 2-(3-Chloro-4-fluorophenyl)-4-(4-fluoro-3-mehylphenyl)-5-[4-(methylsulfonyl)phenyl]-3(2H)-pyridazinone] | – | 7760 nM | 20 nM | 207 to 208 °C | 51% | inhibition at 1 µM ([1]; 1 μM, read-out: RHUCX1 % Inh. at Dose): 55%; inhibition at 10 µM [1, 6]: 72%; inhibition at 1 µM [2, 7]: 71%; inhibition at 10 µM ([2]; 10 μM, read-out: RHUCX2 % Inh. at Dose): 99%
CC(C)(C)COc1c(-c2ccc(S(C)(=O)=O)cc2)cnn(-c2cccc(Cl)c2)c1=O [Example 338, 2-(3-Chlorophenyl)-4-(2,2-dimethylpropoxy)-5-[4-(methylsulfonyl)phenyl]-3(2H)-pyridazinone] | 0% | 14900 nM | 4 nM | 151 to 153 °C | 83% | inhibition at 1 µM [2, 7]: 100%
CC(C)CSc1c(-c2ccc(S(C)(=O)=O)cc2)cnn(-c2cccc(Cl)c2)c1=O [Example 361, 2-(3-Chlorophenyl)-4-[2-(methylpropyl)thiol]-5-[4-(methylsulfonyl)phenyl]-3(2H)-pyridazinone] | 3% | – | – | – | – | IC50 [2]: 11 nM; inhibition in vivo at 3 mg/kg [5]: 65%
CS(=O)(=O)c1ccc(-c2cnn(-c3cccc(Cl)c3)c(=O)c2C2CCCCC2)cc1 [Example 368, 2-(3-Chlorophenyl)-4-cyclohexyl-5-[4-(methylsulfonyl)phenyl]-3(2H)-pyridazinone] | 13% | 13700 nM | – | 85 to 90 °C | 65% | inhibition at 1 µM [2, 7]: 96%; inhibition at 0.01 µM [4, 8]: 33%; inhibition at 0.03 µM ([4]; 0.03 μM, read-out: Wish % Inhib. at Dose): 64%
Cc1ccc(-c2c(-c3ccc(S(C)(=O)=O)cc3)cnn(-c3cccc(Cl)c3)c2=O)cc1 [Example 370, 2-(3-Chlorophenyl)-4-(4-methylphenyl)-5-[4-(methylsulfonyl)phenyl]-3(2H)-pyridazinone] | 8% | 8400 nM | 20 nM | 222 to 224 °C | – | IC50 [2]: 48 nM
CC(C)CCc1c(-c2ccc(S(C)(=O)=O)cc2)cnn(-c2ccc(F)cc2)c1=O [Example 378] | – | – | – | – | – | CAP % Inhib. @ 3 mpk [5]: 59%
CC(C)(C)COc1c(-c2ccc(S(N)(=O)=O)c(F)c2)cnn(CC(F)(F)F)c1=O [Example 381, 2-(2,2,2-Trifluoroethyl)-4-(2,2-dimethylpropoxy)-5-[3-fluoro-4-(aminosulfonyl)phenyl]-3(2H)-pyridazinone] | 0% | – | 75 nM | 144 to 145 °C | – | IC50 [2]: 188 nM; inhibition at 30 µM ([3]; 30 μM, read-out: HWPX % Inhib. at Dose): 31%; inhibition at 100 µM ([3]; 100 μM, read-out: HWPX % Inhib. at Dose): 91%
Cc1cc(-c2c(-c3ccc(S(N)(=O)=O)cc3)cnn(-c3cccc(Cl)c3)c2=O)ccc1F [Example 391, 2-(3-Chlorophenyl)-4-(4-fluoro-3-methylphenyl)-5-[4-(aminosulfonpl)phenyl]-3(2h)-pyridazinone] | – | – | – | – | – | CAP % Inhib. @ 3 mpk [5]: 61%
NS(=O)(=O)c1ccc(-c2cnn(-c3ccc(F)c(Cl)c3)c(=O)c2-c2ccc(F)cc2)cc1 [Example 401, 2-(3-Chloro-4-fluorophenyl)-4-(4-fluorophenyl)-5-[4-(aminosulfonyl)phenyl]-3(2H)-pyridazinone] | – | 320 nM | 17 nM | 208 to 210 °C | 62% | IC50 ([1]; read-out: RHUCX1 IC50 (parenthetical value)): 753 nM; inhibition at 0.01 µM [2, 7]: 48%; inhibition at 1 µM [2, 7]: 96%
CC(C)CCc1c(-c2ccc(S(N)(=O)=O)cc2)cnn(-c2ccc(F)c(F)c2)c1=O [Example 404, 2-(3,4-Difluorophenyl)-4-(3-methylbutyl)-5-[4-(aminosulfonyl)phenyl]-3(2H)-pyridazinone] | 77% | 337 nM | – | 171 to 173 °C | 92% | inhibition at 10 µM [1, 6]: 47%; inhibition at 0.01 µM [2, 7]: 57%; inhibition at 0.01 µM [4, 8]: 58%; inhibition at 0.1 µM ([4]; 0.1 μM, read-out: Wish % Inhib. at Dose): 96%
CS(=O)(=O)c1ccc(-c2cnn(-c3cccc(Cl)c3)c(=O)c2OCC2CC2)cc1 [Example 418, 2-(3-Chlorophenyl)-4-cyclopropanemethoxy-5-[4-(methylsulfonyl)phenyl]-3(2H)-pyridazinone] | 33% | 14200 nM | 250 nM | 158 to 161 °C | 52% | inhibition at 0.025 µM ([2]; 0.025 μM, read-out: RHUCX2 % Inh. at Dose): 53%; inhibition at 1 µM [2, 7]: 85%
C=C(C)CCOc1c(-c2ccc(S(C)(=O)=O)cc2)cnn(-c2cccc(Cl)c2)c1=O [Example 427, 2-(3-Chlorophenyl)-4-(3-methyl-3-butenoxy)-5-[4-(methylsulfonyl)phenyl]-3(2H)-pyridazinone] | – | – | – | 110 to 112 °C | – | inhibition in vivo at 3 mg/kg [5]: 78%
CC(C)(O)COc1c(-c2ccc(S(N)(=O)=O)cc2)cnn(-c2ccc(F)c(F)c2)c1=O [Example 459] | – | – | – | – | – | CAP % Inhib. @ 3 mpk [5]: 45%
C[C@@H](CO)COc1c(-c2ccc(S(N)(=O)=O)cc2)cnn(-c2ccc(F)c(F)c2)c1=O [Example 464, (S)-2-(3,4-Difluorophenyl)-4-(3-hydroxy-2-methyl-1-propoxy)-5-[4-(aminosulfonyl)phenyl]-3(2H)-pyridazinone] | – | – | – | – | – | inhibition in vivo at 3 mg/kg [5]: 70%
